In ChEMBL document CHEMBL1201862, “PubChem BioAssay data set” (2004):
Values joined by “and” are separate entries in the source; they are usually repeats but may differ in a detail not shown here. Equal values may be shown once.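 Cultured in 96-well plates, cells were exposed to test compound for 48 hours across five concentrations. GI50 marks 50% less growth.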 Active and inactive are the calls of the source. Cut-off read from the data, not from the text of the source: active = GI50 up to about 1.1 µM and inactive = higher.

Experiments:
Assay in all cases: inhibition of tumour cell growth, NCI panel, 48 h
HOP-18 = tested on: HOP-18
SNB-78 = tested on: SNB-78
M19-MEL = tested on: M19-MEL
LXFL 529 = tested on: LXFL 529
KM-20L2 = tested on: KM-20L2
DLD-1 = tested on: DLD-1
BT-549 = tested on: BT-549
XF498 = tested on: XF498
RXF 631 = tested on: RXF 631

SMILES: O=C(O)c1cc2c3ccccc3nc-2c[nH]1
- GI50 (HOP-18): > 100 µM (inactive)
- GI50 (SNB-78): > 100 µM (inactive)
- GI50 (M19-MEL): > 100 µM (inactive)
- GI50 (LXFL 529): > 100 µM (inactive)
- GI50 (KM-20L2): > 100 µM (inactive)
- GI50 (DLD-1): > 100 µM (inactive)

SMILES: Cc1cc(-c2cc(C)c(O)c(C(C)(C)C)c2)cc(C(C)(C)C)c1O
- GI50 (BT-549): 14.1 µM (inactive) and 13.1 µM (inactive)

SMILES: COc1c(C(CC(C)C)OC(C)=O)ccc2c1C(=O)OCc1cc(C)cc(O)c1O2 (centres undefined)
- GI50 (BT-549): 16.2 µM (inactive)

SMILES: COc1cc(C2C3=C(COC3=O)Oc3cc4c(cc32)OCO4)cc(OC)c1OC (centres undefined)
- GI50 (HOP-18): 0.16 µM (active)
- GI50 (SNB-78): 0.00849 µM (active)
- GI50 (M19-MEL): 0.0269 µM (active)
- GI50 (BT-549): 0.245 µM (active)
- GI50 (LXFL 529): 0.00718 µM (active)
- GI50 (KM-20L2): 0.0139 µM (active)
- GI50 (DLD-1): 0.022 µM (active)

SMILES: C=C(C)CNCCN
- GI50 (BT-549): > 100 µM (inactive)

SMILES: CC(=O)O[C@H]1CC[C@H]2[C@@H]3CCc4cc(O)c(I)cc4[C@H]3CC[C@]12C
- GI50 (BT-549): 14.8 µM (inactive)

SMILES: N#Cc1c(-c2ccc(Cl)cc2)c(-c2ccc(Cl)cc2)nn(CCOC(=O)CCC(=O)O)c1=O
- GI50 (HOP-18): 29.2 µM (inactive)
- GI50 (M19-MEL): 1.8 µM (inactive)
- GI50 (BT-549): 11.9 µM (inactive)
- GI50 (LXFL 529): 1.03 µM (active)
- GI50 (KM-20L2): 2.28 µM (inactive)
- GI50 (DLD-1): 4.13 µM (inactive)

SMILES: Cc1ccc(-n2nnc(C#N)c2O)cc1
- GI50 (BT-549): > 100 µM (inactive)

SMILES: Oc1ccc(C[C@@H]2CN[C@H](Cc3ccc(O)c(Br)c3)CN2)cc1
- GI50 (BT-549): > 100 µM (inactive)

SMILES: Nc1ncc(Br)c(NCC2(CO)CCC2)n1
- GI50 (BT-549): > 100 µM (inactive)

SMILES: CC(N1CCOCC1)C(O)(c1ccccc1)c1ccccn1 (centres undefined)
- GI50 (BT-549): > 100 µM (inactive)

SMILES: CC(C)COC(=O)OC(=O)c1ccc(N(C)Cc2cnc3nc(N)nc(N)c3n2)cc1
- GI50 (BT-549): 20.9 µM (inactive)

SMILES: O=C1OC(=O)C2C1C1C(c3ccccc3)=C(c3ccccc3)C2(O)C2C(=O)OC(=O)C12 (centres undefined)
- GI50 (SNB-78): 97.7 µM (inactive)
- GI50 (M19-MEL): > 100 µM (inactive)
- GI50 (LXFL 529): 58.3 µM (inactive)
- GI50 (KM-20L2): 91 µM (inactive)
- GI50 (DLD-1): 91 µM (inactive)

SMILES: COC(=O)C1CC(C=O)=C(SC)N1 (centres undefined)
- GI50 (BT-549): > 50 µM (inactive)

SMILES: CC(C)(C)/C(O)=C\c1nc2cc(C(F)(F)F)ccc2[nH]c1=O
- GI50 (BT-549): > 100 µM (inactive)

SMILES: CN1C(=O)C(C(N)=O)C2CC1(C)Oc1ccccc12 (centres undefined)
- GI50 (BT-549): > 100 µM (inactive)

SMILES: CCOC(=O)/C(=C\c1ccc(N(C)C)cc1)S(=O)(=O)C(F)(F)C(F)(F)C(F)(F)C(F)(F)F
- GI50 (BT-549): 52.6 µM (inactive)

SMILES: Cc1nc2nn(C)cc2c(=O)n1/N=C/c1ccccc1
- GI50 (HOP-18): 73.1 µM (inactive)
- GI50 (SNB-78): > 100 µM (inactive)
- GI50 (M19-MEL): > 100 µM (inactive)
- GI50 (XF498): > 100 µM (inactive)
- GI50 (KM-20L2): > 100 µM (inactive)
- GI50 (DLD-1): > 100 µM (inactive)

SMILES: Cc1cc2c(cc1C)[n+]([O-])c(C(=O)CC(=O)C(=O)Nc1ccccc1C)c(C)[n+]2[O-]
- GI50 (HOP-18): 30.5 µM (inactive)
- GI50 (SNB-78): > 100 µM (inactive)
- GI50 (RXF 631): 32 µM (inactive)
- GI50 (M19-MEL): > 100 µM (inactive)
- GI50 (LXFL 529): 84.7 µM (inactive)
- GI50 (KM-20L2): > 100 µM (inactive)

SMILES: O=C1C[C@@H]2[C@@H](CCC23CCCC3)N1
- GI50 (HOP-18): > 100 µM (inactive)
- GI50 (SNB-78): > 100 µM (inactive)
- GI50 (M19-MEL): > 100 µM (inactive)
- GI50 (LXFL 529): > 100 µM (inactive)
- GI50 (KM-20L2): > 100 µM (inactive)
- GI50 (DLD-1): > 100 µM (inactive)

SMILES: O=NN1C(c2ccccc2)CC(=NO)CC1c1ccccc1 (centres undefined)
- GI50 (BT-549): > 100 µM (inactive)

SMILES: CCc1nn(S(=O)(=O)c2ccc(C)cc2)c2c1CS(=O)(=O)CC2
- GI50 (BT-549): > 100 µM (inactive)

SMILES: CC1=C(c2ccccc2)C(c2ccccc2)=C(c2ccccc2)C2(c3ccccc3)C(=O)C(C)CN12 (centres undefined)
- GI50 (M19-MEL): 58.5 µM (inactive)
- GI50 (XF498): 16.9 µM (inactive)
- GI50 (LXFL 529): 43.8 µM (inactive)
- GI50 (KM-20L2): 45.5 µM (inactive)
- GI50 (DLD-1): 61.8 µM (inactive)

SMILES: CCCCCCCCCC1CC(=O)NCC(=O)NC(C(C)C)C(=O)NC(CC(C)C)C(=O)NC(C)C(=O)NC(C(C)C)C(=O)O1 (centres undefined)
- GI50 (BT-549): 11.4 µM (inactive)

SMILES: O=C(NCc1ccccc1)c1cc2ccccc2o/c1=N\c1cccc(C(F)(F)F)c1
- GI50 (BT-549): > 100 µM (inactive)

SMILES: Cc1c(C)n(COCCO)c2ncnc(N)c12
- GI50 (HOP-18): > 100 µM (inactive)
- GI50 (M19-MEL): > 100 µM (inactive)
- GI50 (XF498): > 100 µM (inactive)
- GI50 (LXFL 529): > 100 µM (inactive)
- GI50 (KM-20L2): > 100 µM (inactive)
- GI50 (DLD-1): > 100 µM (inactive)

SMILES: COC1=C(OC)C(=O)C(C/C=C/c2c(Cl)nc3sccn23)=C(C)C1=O
- GI50 (BT-549): 15 µM (inactive)

SMILES: CSc1nc(NC(C)C)c2c(n1)Sc1nc3ccccc3n1N=C2
- GI50 (BT-549): 18.7 µM (inactive)

SMILES: S=C1SCN(Cc2ccco2)CN1c1ccc(Br)cc1
- GI50 (BT-549): 16.7 µM (inactive)

SMILES: CC(C)=c1sc(=C(C)C)c2c1=NC(C)(C)N=2
- GI50 (BT-549): 67.3 µM (inactive)

SMILES: Cc1cc(C)nc(NS(=O)(=O)c2ccc(NC(=O)c3ccc4nc5ccccc5c(Nc5ccc(S(=O)(=O)N=C(N)N)cc5)c4c3)cc2)n1
- GI50 (BT-549): > 100 µM (inactive)

SMILES: COc1cc(NS(C)(=O)=O)ccc1N1Cc2c[nH]c3ccc4nccc1c4c23
- GI50 (BT-549): 42.9 µM (inactive)

SMILES: CC(=O)/C(=C\n1c(=S)[nH]c2ccc([N+](=O)[O-])cc21)C(=O)Nc1ccccc1C
- GI50 (BT-549): 33.3 µM (inactive)

SMILES: COC(=O)[C@H](Cc1ccccc1)NC(=O)N(CCC#N)CCN(C(=O)N[C@@H](Cc1ccccc1)C(=O)OC)c1ccccc1
- GI50 (BT-549): 49.3 µM (inactive)

SMILES: O=C1C=CC(=O)c2c1ccc1c3ccccc3n(-c3ccccn3)c21
- GI50 (HOP-18): 14.8 µM (inactive)
- GI50 (SNB-78): > 100 µM (inactive)
- GI50 (M19-MEL): 21 µM (inactive)
- GI50 (XF498): 15.6 µM (inactive)
- GI50 (LXFL 529): 14.8 µM (inactive)
- GI50 (DLD-1): 16.5 µM (inactive)
